Experimental data as given in US9506032B2, “Engineered biological pacemakers” (The United States of America, as represented by the …, priority 2009, dated 2016).

What was measured:
Format in all cases: cell-based, Mouse
[1] = tested on: spontaneously beating ESCs; assay: Spontaneous action potentials and Ca2+ signals in intact spontaneously beating ESCs (patch clamp with confocal imaging); conditions: for LCRs (effect of intervention) / spontaneous AP firing and Ca2+ transients: intact spontaneously beating ESCs (FIG. 6)
From the text: (§1) Mouse ES cells of line R1 were differentiated into cardiac cells using the “hanging drop” technique. ESCs were isolated from in vitro-grown embryoid bodies by microdissection followed by collagenase treatment. […] At day 2, EBs were transferred into bacteriological petri dishes and cultured in suspension until day 5. […] Individual spontaneously beating ESCs were isolated by microdissection and collagenase treatment.
ESCs differentiated in vitro for 9 to 20 days after plating of 7 days old embryoid bodies were studied during continuous superfusion with solution containing in mmol/L: 140 NaCl, 5.4 KCl, 5 HEPES, 2 MgCl2, 1.8 CaCl2, 10 glucose, (pH adjusted to 7.4 with NaOH). Selection of the cells for patch-clamp technique was based on spontaneous beating. Action potentials were measured at physiological temperature (35±2° C.) with standard current-clamp technique (Axopatch 200, Axon Instruments, Foster City, Calif., USA), pCLAMP7 software was used for data acquisition and analysis (Axon Instruments). Perforated patch-clamp technique was performed with β-escin added to the electrode solution. Patch pipette solution contained in mmol/L: 120 K-gluconate, 5 NaCl, 5 Mg-ATP, 5 HEPES, 20 KCl, 3 Na2ATP (pH adjusted to 7.2 with NaOH). […] Patch pipette filling solution contained (in mmol/L) 120 CsCl, 10 NaCl, 20 tetraethylammonium chloride, 5 MgATP, and 20 HEPES (pH 7.2 adjusted with CsOH), and 100 μmol/L fluo-4 pentapotassium salt (Molecular Probes). Four conditioning pulses of 100 ms and 0 mV were delivered at 1.0 Hz prior to each test voltage pulse to load the SR with Ca^2+.
In whole cell configuration, fluo-4 was added directly to the pipette solution.
(§2) Fluo-4 measurements are presented in terms of F/F0 (normalized Ca^2+ signal). […] were analyzed by programs developed using Delfi-7 software. The duration and width of LCRs were measured as the time at half-maximal amplitude of the normalized signal.

saponin-skinned ESCs = assay: Local Ca2+ releases (LCRs) in saponin-skinned ESCs, confocal line-scan Ca2+ imaging; conditions: for LCRs (effect of drug): skinned ESCs, 150 nmol/L free [Ca2+]
From the text: as §1, §2

[2] = tested on: Na+/Ca2+ exchanger (NCX) current in ESCs; assay: Inward NCX current spikes in ESCs voltage-clamped at -50 mV; conditions: voltage clamp −50 mV, Na+ substituted by Li+ inhibiting NCX; 10 to 20 pA in control
Method: ESCs differentiated in vitro for 9 to 20 days after plating of 7 days old embryoid bodies were studied during continuous superfusion with solution containing in mmol/L: 140 NaCl, 5.4 KCl, 5 HEPES, 2 MgCl2, 1.8 CaCl2, 10 glucose, (pH adjusted to 7.4 with NaOH). Selection of the cells for patch-clamp technique was based on spontaneous beating. Action potentials were measured at physiological temperature (35±2° C.) with standard current-clamp technique (Axopatch 200, Axon Instruments, Foster City, Calif., USA), pCLAMP7 software was used for data acquisition and analysis (Axon Instruments). Perforated patch-clamp technique was performed with β-escin added to the electrode solution. Patch pipette solution contained in mmol/L: 120 K-gluconate, 5 NaCl, 5 Mg-ATP, 5 HEPES, 20 KCl, 3 Na2ATP (pH adjusted to 7.2 with NaOH). Recording of L-type Ca^2+ current (ICaL) simultaneously with Ca^2+ signal imaging (see Example 3) were performed under whole cell voltage clamp. […]
When activation of ion channels and APs are disabled by voltage clamp at −50 mV, spontaneous LCRS for at least 5 s were observed (FIG. 4, Panel A). […] It was determined under the voltage clamp whether LCRs can cause the current spikes via NCX activation. […]

Compound: CC(=O)OCOC(=O)CN(CC(=O)OCOC(C)=O)c1ccccc1OCCOc1ccccc1N(CC(=O)OCOC(C)=O)CC(=O)OCOC(C)=O [BAPTA-AM]
- LCRs (effect of intervention) [1]: inhibited
- spontaneous AP firing and Ca2+ transients [1]: became irregular, culminating in cessation of automaticity or in extremely rare and irregular beating

Compound: Nc1ncnc2c1nc(Sc1ccc(Cl)cc1)n2[C@@H]1O[C@@H]2COP(=O)(O)O[C@H]2[C@H]1O [CPT-cAMP]
- cycle length (CL) variability index (100%×CL standard deviation/CL mean) ([1]; cells with irregular beating, after 300 μmol/L CPT-cAMP, before 23.98+/−4.82%, P<0.05): 11.23+/−2.68%
- rhythmicity of beating ([1]; irregularly beating ESCs, 300 μmol/L CPT-cAMP): converted irregularly beating ESCs to rhythmic pacemakers

Compound: CCCCNc1ccc(C(=O)OCCN(C)C)cc1 [tetracaine]
- LCRs (effect of drug) (saponin-skinned ESCs; 1 mmol/L drug): inhibited

Compound: O=S(=O)(NCCNC/C=C/c1ccc(Br)cc1)c1cccc2cnccc12 [H89]
- APs / automaticity on PKA inhibition ([1]; spontaneously beating ESCs, 10 μmol/L): irregUlar APs or cessation of automaticity

Compound: C/C=C(/C)C(=O)O[C@H]1C(C)=C2[C@H]([C@@H]1OC(=O)CCCCCCC)[C@@](C)(OC(C)=O)C[C@H](OC(=O)CCC)[C@@]1(O)[C@H]2OC(=O)[C@@]1(C)O [thapsigargin]
- LCRs (effect of intervention) [1]: inhibited
- spontaneous AP firing and Ca2+ transients [1]: became irregular, culminating in cessation of automaticity or in extremely rare and irregular beating
- LCRs (effect of drug) (saponin-skinned ESCs; 10 μmol/L drug): inhibited

Compound: Nc1ncnc2c1ncn2[C@@H]1O[C@@H]2COP(=O)(O)O[C@H]2[C@H]1O [cAMP, cyclic AMP]
- local Ca2+ oscillators (saponin-skinned ESCs; saponin-skinned ESCs, stimulation with 20 μmol/L cAMP): emergence of new local Ca^2+ oscillators in many cell locations

Compound: ryanodine
- LCRs (effect of intervention) [1]: inhibited
- spontaneous AP firing and Ca2+ transients [1]: became irregular, culminating in cessation of automaticity or in extremely rare and irregular beating
- LCRs (effect of drug) (saponin-skinned ESCs; 10 μmol/L drug): inhibited

Compound: [Li+] [Li^+]
- spontaneous excitation (APs) ([1]; Na+-free lithium solution applied ~1 s, zero-current clamp, rhythmic LCRs continued): excitation failure
- high-amplitude inward current spikes [2]: disappeared
